Earlier results, collected in patent US6846831B2, “Method of treating the syndrome of lipodystrophy” (CPD, LLC, priority 2000, dated 2005).

Key:
[1] = molecular target: μ opioid receptor (Rattus norvegicus, UniProt P33535); details: read-out: μ IC50; homogenates of rat brain minus cerebellum; prototype ligand DHM
[2] = molecular target: κ opioid receptor (Rattus norvegicus, UniProt P34975); details: read-out: κ IC50; homogenates of rat brain minus cerebellum; prototype ligand EKC
[3] = molecular target: δ opioid receptor (Rattus norvegicus, UniProt P33533); details: read-out: δ IC50; homogenates of rat brain minus cerebellum; prototype ligand DADLE
Sequence of δ opioid receptor (P33533 whole entry): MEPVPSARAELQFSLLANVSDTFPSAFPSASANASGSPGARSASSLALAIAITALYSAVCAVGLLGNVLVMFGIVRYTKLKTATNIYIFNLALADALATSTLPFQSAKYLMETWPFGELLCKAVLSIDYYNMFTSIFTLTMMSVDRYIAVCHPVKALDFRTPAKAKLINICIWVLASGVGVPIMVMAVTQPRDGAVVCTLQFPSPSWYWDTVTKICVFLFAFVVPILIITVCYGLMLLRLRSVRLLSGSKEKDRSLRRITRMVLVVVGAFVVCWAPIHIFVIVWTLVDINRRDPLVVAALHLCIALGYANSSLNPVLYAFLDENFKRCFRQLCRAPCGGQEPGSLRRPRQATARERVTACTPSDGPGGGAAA

Sequence of μ opioid receptor (P33535 whole entry): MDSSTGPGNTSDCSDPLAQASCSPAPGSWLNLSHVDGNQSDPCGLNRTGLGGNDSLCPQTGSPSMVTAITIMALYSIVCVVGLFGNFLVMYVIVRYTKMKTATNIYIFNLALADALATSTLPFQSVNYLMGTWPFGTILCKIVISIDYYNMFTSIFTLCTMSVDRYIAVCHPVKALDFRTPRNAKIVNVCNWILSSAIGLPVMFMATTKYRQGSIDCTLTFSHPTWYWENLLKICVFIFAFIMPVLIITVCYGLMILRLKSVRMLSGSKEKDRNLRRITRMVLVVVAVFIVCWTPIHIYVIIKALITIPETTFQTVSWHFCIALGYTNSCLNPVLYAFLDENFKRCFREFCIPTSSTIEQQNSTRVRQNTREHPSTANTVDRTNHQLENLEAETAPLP
Sequence of κ opioid receptor (P34975 whole entry): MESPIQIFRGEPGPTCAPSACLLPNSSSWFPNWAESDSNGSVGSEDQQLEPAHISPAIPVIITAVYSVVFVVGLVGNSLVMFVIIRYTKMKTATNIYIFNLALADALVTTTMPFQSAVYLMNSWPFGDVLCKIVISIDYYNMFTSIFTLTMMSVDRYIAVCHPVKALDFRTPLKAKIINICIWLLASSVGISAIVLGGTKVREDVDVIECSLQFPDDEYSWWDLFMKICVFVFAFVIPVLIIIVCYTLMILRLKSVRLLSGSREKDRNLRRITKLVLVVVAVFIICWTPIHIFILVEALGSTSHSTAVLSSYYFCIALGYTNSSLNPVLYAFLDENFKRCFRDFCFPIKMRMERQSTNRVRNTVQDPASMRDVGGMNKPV

Question: With C=C1CC[C@@]2(O)[C@H]3Cc4ccc(O)c5c4[C@@]2(CCN3CC2CC2)[C@H]1O5 [Nalmefene] as the compound, how does the IC50 [1] read?
Answer: 1 nM

Question: And the IC50 [2]?
Answer: 5.3 nM

Question: And the IC50 [3]?
Answer: 6.1 nM
